Measured values as given in publication PMC7924852, “The Emericellipsins A–E from an Alkalophilic Fungus Emericellopsis alkalina Show Potent Activity against Multidrug-Resistant Pathogenic Fungi” (Journal of Fungi, 2021).

Assays:
A. fumigatus VKM F-37 [1] = test: Disc-diffusion antifungal assay; assay type: cell-based, Aspergillus fumigatus; details: 40 µg/disc
A. terreus 497 = test: Disc-diffusion antifungal assay; assay type: cell-based; details: 40 µg/disc; A. terreus 497, pathogenic clinical isolate
[2] = tested on: clinical isolates of Candida; test: Disc-diffusion antifungal assay, clinical yeast isolates; assay type: cell-based; details: range over clinical isolates of Candida (Figure S2)
A. niger 1133 m = test: Broth two-fold microdilution MIC (CLSI); assay type: cell-based, Aspergillus niger; details: A. niger 1133 m clinical isolate; RPMI 1640 pH 7.0, 35 °C, 48 h
A. terreus 3 K = test: Broth two-fold microdilution MIC (CLSI); assay type: cell-based; details: A. terreus 3 K; RPMI 1640 pH 7.0, 35 °C, 48 h
A. fumigatus VKM F-37 [3] = test: Broth two-fold microdilution MIC (CLSI); assay type: cell-based, Aspergillus fumigatus; details: A. fumigatus VKM F-37; RPMI 1640 pH 7.0, 35 °C, 48 h
Candida albicans 1402 = test: Broth microdilution MIC and MFC (CLSI); assay type: cell-based
C. krusei 1447 = test: Broth microdilution MIC and MFC (CLSI); assay type: cell-based
C. tropicalis 156 = test: Broth microdilution MIC and MFC (CLSI); assay type: cell-based
[4] = tested on: Cryptococcus neoformans 297; test: Broth microdilution MIC and MFC (CLSI); assay type: cell-based
[5] = tested on: clinical yeast isolates (Candida, Cryptococcus); test: Broth microdilution MIC/MFC, pathogenic multidrug yeast strains; assay type: cell-based; details: isolates of C. albicans, C. glabrata and C. neoformans
[6] = tested on: K-562 (leukemia cell line); test: MTT cytotoxicity assay; assay type: cell-based; details: 72 h, three experiments, each in triplicate
Experimental: Experiments for determining the cytotoxic activity of the compound in MTT assays were performed as previously described [24]. The following tumor cell lines were used for this study: HCT-116 (colon cancer cell line), B16 (mouse melanoma cell line), K-562 (leukemia cell line), MDA-MB-231 (breast cancer line), and MCF-7 (breast cancer cell). […] The cell lines were cultured in Dulbecco modified Eagle’s medium supplemented with 5% fetal calf serum, 2 mM Lglutamine, 100 U/mL penicillin, and 100 mg/mL streptomycin at 37 °C, 5% CO2 in a humidified atmosphere. Experiments were carried out on cells in the logarithmic phase of growth. The peptide was dissolved in DMSO as a 10 mM stock solution, followed by serial dilutions in water immediately before the experiment. Briefly, cells (5 × 10^3 in 190 mL of culture medium) were plated in a 96-well plate and treated with 0.1% DMSO (blank control) or with 10 mM of the peptide (0.10‒50 μM; each concentration in duplicate) for 72 h. After incubation with peptide, 20 mL of aqueous MTT solution (3-(4,5-dimethylthiazol-2-yl)-2,5-diphenyltetrazolium bromide, 5 mg/mL) were added into each well for 2‒3 h. Formazan was dissolved in DMSO, and the absorbance at 570 nm was measured. […] All the experiments were repeated three times, each time in triplicate.

human erythrocytes = test: Hemolytic activity; assay type: cell-based; details: for hemolytic activity (in words): concentrations of 0–20 μM
Experimental: Erythrocytes were isolated from the peripheral blood of healthy donors after incubation at 4 °C for 2–3 h. All the donors are males, 35–38 years old. All of them have approved to collect blood samples, and the authors have permissions filled. All the blood samples have been destroyed after the experiments finished. The red blood cell suspension (100 μL) was pelleted, washed twice with saline, then the pellet was resuspended in 500 μL saline or distilled water (positive control of hemolysis). The compounds were added (final concentration of 20 μM). The samples were incubated for 1 h at 37 °C and centrifuged at 2000 rpm for 1.5 min. The OD of supernatants was measured on a Multiscan spectrophotometer FC (Thermo Scientific, Waltham, MA, USA) at a wavelength of 540 nm. The percent hemolysis was calculated relative to the positive control, taken as 100%.
Erythrocytes were isolated from the human blood: On the day of the study, blood was taken from the donor’s cubital vein into a test tube with an anticoagulant. The blood was incubated at 4 °C for 2‒3 h. A suspension of erythrocytes (100 μL) was diluted with a physiological buffer (pH 7.2) to a total volume of 500 μL. Solutions of the test substances with an initial concentration of […] (DMSO) were diluted with a PBS buffer (1:10). The resulting solutions were introduced into Eppendorf tubes in the amounts required to create the studied concentration (5, 10, or 20 μM). A mixture of PBS with erythrocytes was added to a total volume of 200 μL. The control (C) was a mixture of erythrocytes with H2O (100% of hemolysis). The intact control solution (I) was a mixture of erythrocytes with the PBS and solvent (DMSO). The antibiotic gramicidin S (Gram S) was used as a control sample with active hemolysis. The mixture was incubated for 1 h at 37 °C. The measurement of the optical density of the supernatants was carried out on a BioTek ELx800 automatic microplate photometer (USA) at 570 nm. The optical density of the liquid above the sediment in the control sample with H2O was taken as 100%.

Hela cell line = details: previous study; cited from earlier work
Excerpt: (§1) Accordingly, despite the high IC50 values for this molecule, fairly significant amounts of antibiotic are required to suppress the cell growth in vitro. The calculated therapeutic index value is sufficiently high due to a low cytotoxicity level for normal cells, which is an undeniable advantage over both pre-scorubicin and most other antitumor compou ...

HepG2 cell line = details: previous study; cited from earlier work
Excerpt: as §1

In the case of “Methyldecanoyl-MePro-AHMOD-Ala-Aib-Ile-Iva-βAla-Alaol-Glyol [EmiA, emericellipsin A, nonribosomal lipopeptaibol, major compound of E. alkalina VKPM F1428]”, the “Zone of Inhibition” value (A. fumigatus VKM F-37 [1]) is reported as 20 ± 0.3 mm, the “Zone of Inhibition” value (A. terreus 497) is reported as 14 ± 0.28 mm and the inhibition zones [2] is reported as 20–25 mm. The “Minimal Inhibitory Concentration (MIC)” value (A. niger 1133 m) was 4 µg/mL, the “Minimal Inhibitory Concentration (MIC)” value (A. terreus 3 K) was 0.5 µg/mL and the “Minimal Inhibitory Concentration (MIC)” value (A. fumigatus VKM F-37 [3]) was 2 µg/mL. For the same substance, the MFC (Candida albicans 1402; Candida albicans 1402, lowest concentration causing 95% death, plated on PDA agar) was 4 µg/mL, the MIC (Candida albicans 1402; Candida albicans 1402 clinical isolate, RPMI 1640 pH 7.0, 35 °C, 24 h) was 2 µg/mL and the MFC (C. krusei 1447; C. krusei 1447, lowest concentration causing 95% death) was 2 µg/mL. For the same substance, the MIC (C. krusei 1447; C. krusei 1447 clinical isolate, RPMI 1640 pH 7.0, 35 °C, 24 h) was 0.5 µg/mL, the MFC (C. tropicalis 156; C. tropicalis 156, lowest concentration causing 95% death) was 2 µg/mL and the MIC (C. tropicalis 156; C. tropicalis 156 clinical isolate, RPMI 1640 pH 7.0, 35 °C, 24 h) was 1 µg/mL. It also gave an MFC ([4]; Cryptococcus neoformans 297, lowest concentration causing 95% death) of 0.5 µg/mL, an MIC ([4]; Cryptococcus neoformans 297 clinical isolate, RPMI 1640 pH 7.0, 35 °C, 24 h) of 0.5 µg/mL and an MIC/MFCs range [5] of 0.25 to 4 µg/mL. The IC50 [6] was 1 ± 0.14 µM, the hemolysis (human erythrocytes; 20 μM, 1 h, 37 °C, relative to H2O control = 100%, OD 540 nm or 570 nm, triplicate, mean) was “approximately 12.6%” and the “hemolytic activity (in words)” value (human erythrocytes) was “no hemolytic activity”. For the same substance, the “hemolytic activity (in words)” value (human erythrocytes; listed as Emericellipsin A) was “negligible hemolytic activity”, the EC50 (Hela cell line) was < 0.5 µM and the EC50 (HepG2 cell line) was 2.8 µM.
